From patent US7928136B2, “Substituted 2-indolinone as PTK inhibitors containing a zinc binding moiety” (Curis, Inc., priority 2006, dated 2011)

Assays:
HDAC = HDAC fluorimetric assay kit (AK-500, Biomol), HeLa nuclear extract; type: biochemical; conditions: Fluor de Lys substrate
Protocol: HDAC inhibitors were screened using an HDAC fluorimetric assay kit (AK-500, Biomol, Plymouth Meeting, Pa.). […] Each assay was setup as follows: Defrosted all kit components and kept on ice until use. Diluted HeLa nuclear extract 1:29 in Assay Buffer (50 mM Tris/Cl, pH 8.0, 137 mM NaCl, 2.7 mM KCl, 1 mM MgCl2). Prepared dilutions of Trichostatin A (TSA, positive control) and tested compounds in assay buffer (5× of final concentration). Diluted Fluor de Lys™ Substrate in assay buffer to 100 uM (50 fold=2× final). Diluted Fluor de Lys™ developer concentrate 20-fold (e.g. 50 μl plus 950 μl Assay Buffer) in cold assay buffer. Second, diluted the 0.2 mM Trichostatin A 100-fold in the 1× Developer (e.g. 10 μl in 1 ml; final Trichostatin A concentration in the 1× Developer=2 μM; final concentration after addition to HDAC/Substrate reaction=1 μM). Added Assay buffer, diluted trichostatin A or test inhibitor to appropriate wells of the microtiter plate. Added diluted HeLa extract or other HDAC sample to all wells except for negative controls. Allowed diluted Fluor de Lys™ Substrate and the samples in the microtiter plate to equilibrate to assay temperature (e.g. 25 or 37° C. Initiated HDAC reactions by adding diluted substrate (25 μl) to each well and mixing thoroughly. Allowed HDAC reactions to proceed for 1 hour and then stopped them by addition of Fluor de Lys™ Developer ([…]). Incubated plate at room temperature (25° C.) for 10-15 min. Read samples in a microtiter-plate reading fluorimeter capable of excitation at a wavelength in the range 350-380 nm and detection of emitted light in the range 440-460 nm.
(§1) The following TABLE B lists compounds representative of the invention and their activity in HDAC, VEGFR2 and PDGFR assays.

VEGFR2 = molecular target: T1, VEGFR2 (Homo sapiens, UniProt P35968); assay: HTScan Receptor Kinase Assay, VEGFR2 tyrosine kinase; type: biochemical; conditions: human VEGFR2 kinase domain, 200 μM ATP
T1 construct: GST (N); HIS6 (N); Thrombin cleavage site (N); purchased Cell Signaling Technologies; host or cells: baculovirus expression system
T1 sequence (P35968 807-1356 limits assumed): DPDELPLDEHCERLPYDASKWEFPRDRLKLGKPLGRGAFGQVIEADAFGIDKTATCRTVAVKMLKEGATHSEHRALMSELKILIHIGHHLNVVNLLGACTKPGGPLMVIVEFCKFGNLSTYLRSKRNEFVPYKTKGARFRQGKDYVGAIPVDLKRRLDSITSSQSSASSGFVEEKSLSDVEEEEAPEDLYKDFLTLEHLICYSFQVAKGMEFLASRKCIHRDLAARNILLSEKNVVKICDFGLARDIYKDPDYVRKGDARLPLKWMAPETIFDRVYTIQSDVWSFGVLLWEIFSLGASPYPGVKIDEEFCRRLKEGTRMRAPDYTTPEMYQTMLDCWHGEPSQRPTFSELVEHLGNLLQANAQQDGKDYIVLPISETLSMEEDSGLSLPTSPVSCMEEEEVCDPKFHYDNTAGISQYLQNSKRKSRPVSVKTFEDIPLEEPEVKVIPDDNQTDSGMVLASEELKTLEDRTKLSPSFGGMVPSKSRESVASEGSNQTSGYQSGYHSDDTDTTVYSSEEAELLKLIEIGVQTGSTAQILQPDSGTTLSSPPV
Protocol: (§2) Immediately transfer enzyme from −80° C. to ice. Allowed enzyme to thaw on ice. […] Returned immediately to ice. […] Incubated reaction plate at room temperature for 30 minutes. […] Added 100 μl/well primary antibody. Incubated at room temperature for 60 minutes. […] Added 100 μl/well diluted antibody. Incubated at room temperature for 30 minutes. […] Incubated at room temperature for 5 minutes.
as §1

PDGFR-beta = molecular target: T2, PDGFR-beta (Homo sapiens, UniProt P09619); assay: HTScan Receptor Kinase Assay, PDGFR-beta tyrosine kinase; type: biochemical; conditions: human PDGFR-beta kinase fragment, 200 μM ATP
T2 construct: GST (N); HIS6 (N); Thrombin cleavage site (N); purchased Cell Signaling Technologies; host or cells: baculovirus expression system
T2 sequence (P09619 561-1106): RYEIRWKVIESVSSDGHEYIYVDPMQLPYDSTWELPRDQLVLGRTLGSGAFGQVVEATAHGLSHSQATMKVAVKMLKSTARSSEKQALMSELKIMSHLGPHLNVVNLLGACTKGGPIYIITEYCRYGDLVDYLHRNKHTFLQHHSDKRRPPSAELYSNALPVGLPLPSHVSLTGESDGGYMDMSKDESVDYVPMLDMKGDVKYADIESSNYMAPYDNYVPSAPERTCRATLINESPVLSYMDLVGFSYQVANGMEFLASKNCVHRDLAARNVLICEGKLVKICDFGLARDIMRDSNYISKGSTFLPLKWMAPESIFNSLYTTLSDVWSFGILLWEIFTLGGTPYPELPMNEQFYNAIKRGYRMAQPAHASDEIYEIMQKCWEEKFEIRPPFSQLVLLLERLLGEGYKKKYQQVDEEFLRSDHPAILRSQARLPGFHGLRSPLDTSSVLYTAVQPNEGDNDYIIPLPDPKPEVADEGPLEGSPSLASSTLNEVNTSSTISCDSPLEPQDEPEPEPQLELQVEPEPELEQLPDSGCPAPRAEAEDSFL
Protocol: as §2, §1

Compound | IC50 (HDAC) [µM] | IC50 (VEGFR2) [µM] | IC50 (PDGFR-beta) [µM] | melting point
Cc1[nH]c(/C=C2\C(=O)Nc3ccc(F)cc32)c(C)c1C(=O)NCCC(=O)NO [Compound 2, N-(2-(hydroxycarbamoyl)ethyl)-5-((Z)-(5-fluoro-2-oxoindolin-3-ylidene)methyl)-2,4-dimethyl-1H-pyrrole-3-carboxamide] | 0.1 to 1 | < 0.1 | 0.1 to 1 | –
Cc1[nH]c(/C=C2\C(=O)Nc3ccc(F)cc32)c(C)c1C(=O)NCCCC(=O)NO [Compound 3, N-(3-(hydroxycarbamoyl)propyl)-5-((Z)-(5-fluoro-2-oxoindolin-3-ylidene)methyl)-2,4-dimethyl-1H-pyrrole-3-carboxamide] | 1 to 10 | < 0.1 | < 0.1 | –
Cc1[nH]c(/C=C2\C(=O)Nc3ccc(F)cc32)c(C)c1C(=O)NCCCCCC(=O)NO [Compound 4, N-(5-(hydroxycarbamoyl)pentyl)-5-((Z)-(5-fluoro-2-oxoindolin-3-ylidene)methyl)-2,4-dimethyl-1H-pyrrole-3-carboxamide] | 0.1 to 1 | < 0.1 | < 0.1 | 209.7 °C (dec.)
Cc1[nH]c(/C=C2\C(=O)Nc3ccc(F)cc32)c(C)c1C(=O)NCCOc1ccc(C(=O)NO)cc1 [Compound 8, (Z)-5-((5-fluoro-2-oxoindolin-3-ylidene)methyl)-N-(2-(4-(hydroxycarbamoyl)phenoxy)ethyl)-2,4-dimethyl-1H-pyrrole-3-carboxamide] | 0.1 to 1 | – | – | –
Cc1[nH]c(/C=C2\C(=O)Nc3ccc(F)cc32)c(C)c1C(=O)NCCCCCC(=O)N(C)O [Compound 9, (Z)-5-((5-fluoro-2-oxoindolin-3-ylidene)methyl)-N-(6-(hydroxy(methyl)amino)-6-oxohexyl)-2,4-dimethyl-1H-pyrrole-3-carboxamide] | > 10 | < 0.1 | – | –
Cc1[nH]c(/C=C2\C(=O)Nc3ccc(F)cc32)c(C)c1C(=O)NCCOc1ccc(/C=C/C(=O)NO)cc1 [Compound 14, 5-((Z)-(5-fluoro-2-oxoindolin-3-ylidene)methyl)-N-(2-(4-((E)-3-(hydroxyamino)-3-oxoprop-1-enyl)phenoxy)ethyl)-2,4-dimethyl-1H-pyrrole-3-carboxamide] | 0.1 to 1 | < 0.1 | – | –
Cc1[nH]c(/C=C2\C(=O)Nc3ccc(F)cc32)c(C)c1C(=O)NCCCCCCC(=O)NO [Compound 15, (Z)-5-((5-Fluoro-2-oxoindolin-3-ylidene)methyl)-N-(7-(hydroxyamino)-7-oxoheptyl)-2,4-dimethyl-1H-pyrrole-3-carboxamide] | < 0.1 | < 0.1 | 0.1 to 1 | 221 °C (dec.)
Cc1[nH]c(/C=C2\C(=O)Nc3ccc(F)cc32)c(C)c1C(=O)NCCCCCCCC(=O)NO [Compound 16, (Z)-5-((5-Fluoro-2-oxoindolin-3-ylidene)methyl)-N-(8-(hydroxyamino)-8-oxooctyl)-2,4-dimethyl-1H-pyrrole-3-carboxamide] | < 0.1 | < 0.1 | 0.1 to 1 | 213.7 °C (dec.)
